Here are results for two compounds from PMC7279038, “Antioxidant and Neuroprotective Effects Induced by Cannabidiol and Cannabigerol in Rat CTX-TNA2 Astrocytes and Isolated Cortexes” (International Journal of Molecular Sciences, 2020).

What all share (settings): CBD 1000 nM, CBG 1 nM
The subject of one test is synaptotagmin-1 (Syt 1). The experiment in a line: Untargeted proteomic analysis of cortexes, Syt 1. The arrangement: species or system rat. On the procedure:
(§1) Sprague–Dawley rats (200–250 g) were sacrificed by CO2 inhalation (Italian Health Ministry authorization N. F4738.N.XTQ, delivered on 11th November 2018) and isolated prefrontal cortex specimens were immediately explanted and incubated in thermostatic shaking bath at 37 °C for 1 h (incubation period), in Krebs–Ringer buffer at the following K^+ concentrations:
(§2) Cortexes were stimulated with CBD (1000 nM) and CBD (1 nM). Afterwards, specimens were homogenized in perchloric acid solution (0.05 M) for the extraction and quantification of nitrites, via the aforementioned colorimetric Griess assay, and serotonin (5-HT), 5-hydroxyindoleacetic (5HIIA),3-hydroxykinurenine (3-HK) and kinurenic acid (KA) (ng/mg wet tissue) via high performance liquid chromatography analysis. Additionally, an untargeted proteomic analysis was carried out on the cortex homogenate. The analytical protocols for 5-HT, 5HIIA, 3-HK, KA and protein level determinations are described below. […]
(§3) After protein quantification, a volume corresponding to 50 μg of proteins was loaded onto a Nanosep 10-kDa-cutoff filter (Pall Corporation, Michigan, USA) and digested according to the protocol we routinely use in our laboratory, adapted from Distler et al. Briefly, the sample was washed twice with 200 μL urea buffer (8M urea, 100 mM Tris pH 8.5 in milliQ water) to remove the detergents present in the lysis buffer. […]

In a further test the test system is histone H2B. The experiment in a line: Untargeted proteomic analysis of cortexes, H2B. The arrangement: species or system rat. Here is the method: as §1, §2, §3
Test [1] has as its system isolated rat cortexes, 5HIIA/5-HT ratio. The experiment in a line: K+ 60 mM neurotoxicity paradigm, 5-HT turnover. On the procedure: as §1
Cortexes were stimulated with CBD (1000 nM) and CBD (1 nM). Afterwards, specimens were homogenized in perchloric acid solution (0.05 M) for the extraction and quantification of nitrites, via the aforementioned colorimetric Griess assay, and serotonin (5-HT), 5-hydroxyindoleacetic (5HIIA),3-hydroxykinurenine (3-HK) and kinurenic acid (KA) (ng/mg wet tissue) via high performance liquid chromatography analysis. […]
Tissue 3-HK, 5-HT and 5HIIA levels were analyzed through an HPLC apparatus consisting of a Jasco (Tokyo, Japan) PU-2080 chromatographic pump and an ESA (Chelmsford, MA, USA) Coulochem III coulometric detector, equipped with a microdialysis cell (ESA-5014b), a porous graphite working electrode and a solid state palladium reference electrode. The analytical conditions for identification and quantification were selected according to previous studies. […] The chromatograms were monitored at the analytical detector 2. […] Sample concentrations were calculated by linear regression curve (y = bx + m) obtained with standard. […]

As to `C=C(C)[C@@H]1CCC(C)=C[C@H]1c1c(O)cc(CCCCC)cc1O` [CBD, Cannabidiol], the “effect on K+ 60 mM-induced reduction in Syt 1 level” value in the test with synaptotagmin-1 (Syt 1) is given as “blocking the downregulation”. Also, the “effect on K+ 60 mM-induced reduction in H2B level” value in the test with histone H2B is reported as “effective in counteracting the downregulation”. Also, the “effect on K+ 60 mM-induced increase in 5-HT turnover (5HIIA/5-HT ratio)” value in test [1] was “able to prevent the 5-HT depletion”.

Turning to `CCCCCc1cc(O)c(C/C=C(\C)CCC=C(C)C)c(O)c1` [CBG, cannabigerol], in the test on synaptotagmin-1 (Syt 1), the “effect on K+ 60 mM-induced reduction in Syt 1 level” value is on record as “completely ineffective”. Besides, in the test on histone H2B, the “effect on K+ 60 mM-induced reduction in H2B level” value was “effective in counteracting the downregulation”. For the same compound, the “effect on K+ 60 mM-induced increase in 5-HT turnover (5HIIA/5-HT ratio)” value in test [1] is “able to prevent the 5-HT depletion”.
